Assays:
[1] = Pharmacokinetics in male beagle dogs; format: in vivo; settings: plasma, Dog
Procedure: (§1) Male Sprague-Dawley (SD) rats (300–350 g) were fasted overnight, and three per group received BMS-869780 either as an intravenous (IV) infusion in PEG400 : ethanol (90 : 10 w/w) at 1 mg/kg over 5 min via the jugular vein or as nanosuspension (d50 ca. 300 nm) by oral gavage at 5 mg/kg in Povidone K-30 : sodium lauryl sulfate : water (2.5 : 0.12 : 97.38 w/w/w/w). For the IV infusion, serial blood samples were obtained before dose and at 0.17, 0.25, 0.5, 0.75, 1, 2, 4, 6, 8, and 24 hours after dose. For the PO nanosuspension, serial blood samples were obtained before dose and at 0.25, 0.5, 0.75, 1, 2, 4, 6, 8, and 24 h after dose. Blood samples, ~0.3 mL, for all studies were collected from the jugular vein into K3EDTA-containing tubes and then centrifuged at 4°C (1500–2000 ×g) to obtain plasma, which was stored at −20°C until analysis by LC/MS/MS. In male beagle dogs, the PK of BMS-869780 was evaluated in a cross-over study design with a one-week washout between treatments. Dogs were fasted overnight, and three animals (9.5 to 10.7 kg) received BMS-869780 by IV infusion at 1 mg/kg over 5 minutes in PEG400 : ethanol (90 : 10 w/w) or as nanosuspension (d50 ca. 300 nm) by oral gavage at 5 mg/kg in Povidone K-30 : sodium lauryl sulfate : water (2.5 : 0.12 : 97.38 w/w/w/w). Serial blood samples (~0.3 mL) were collected from a saphenous vein into K3EDTA-containing tubes before dose and at 0.083, 0.17, 0.25, 0.5, 0.75, 1, 2, 4, 6, 8, and 24 hours after IV dose, and 0.25, 0.5, 0.75, 1, 2, 4, 6, 8, and 24 hours after oral dose, followed by centrifugation at 4°C (1500 to 2000 ×g) to obtain plasma. Samples were stored at −20°C until analysis of BMS-869780 levels by LC-MS/MS. In male cynomolgus monkeys, the PK of BMS-869780 was evaluated in a cross-over study design with a 1-week washout between treatments. Following an overnight fast, three animals (4.5 to 8 kg) received BMS-869780 by IV infusion via a femoral vein at 1 mg/kg over 10 minutes in PEG400 : ethanol (90 : 10), or by oral gavage at 5 mg/kg in Povidone K-30 : sodium lauryl sulfate : water (2.5 : 0.12 : 97.38). Serial blood samples, ~0.3 mL, were collected from a femoral artery into K3EDTA-containing tubes before dose and at 0.083, 0.17, 0.25, 0.5, 0.75, 1, 2, 4, 6, 8, and 24 hours after IV dose, and 0.25, 0.5, 0.75, 1, 2, 4, 6, 8, and 24 hours after oral dose, followed by centrifugation at 4°C (1500 to 2000 ×g) to obtain plasma. Samples were stored at −20°C until analysis of BMS-869780 levels by LC-MS/MS. The PK parameters of BMS-869780 were obtained by noncompartmental analysis of plasma concentration versus time data (WinNonlin software, Version 5.0; Pharsight Corporation, Mountain View, CA). The peak concentration (C max) and time for C max (T max) were recorded directly from experimental observations. The area under the curve from time zero to the last sampling time (AUC^0-T) and the area under the curve from time zero to infinity (AUC^INF) were calculated using a combination of linear and log trapezoidal summations. The total plasma clearance (CLTp), steady-state volume of distribution (Vss), apparent elimination half-life (T 1/2), and mean residence time (MRT) were estimated after IV administration. The absolute oral bioavailability (F) was estimated as the ratio of dose-normalized AUC values following oral and IV doses.
(§2) Figure 9 Pharmacokinetics (PK) of BMS-869780 across species for prediction of human PK. Rats, dogs, and cynomolgus monkeys were dosed with BMS-869780 intravenously (IV ▲) at 1 mg/kg or oral nanosuspension (PO ●) at 5 mg/kg. Plasma concentrations of BMS-869780 were determined for up to 24 hours after the dose. (a) Rat. (b) Dog. (c) Cynomolgus monkey.

[2] = Pharmacokinetics in male Sprague-Dawley rats; format: in vivo; settings: plasma, Rat
Procedure: as §1, §2

[3] = system: CYP3A4 mRNA; experiment: CYP3A4 mRNA expression in primary human hepatocytes; format: cell-based; settings: two donors, relative to rifampicin 10 μM
Procedure: Figure 10 BMS-869780 caused PXR activation in vitro and lipidosis in rat liver. (a) PXR activation in the presence of BMS-869780 was evaluated in HepG2 cell cultures using a luciferase transcriptional reporter construct (●), or by assay of CYP3A4 mRNA levels in primary human hepatocyte (PHH) cultures from two individual donors (▲ and ▼). Activation in both assays is expressed as % relative to activation in the presence of rifampicin, 10 μM, in parallel cultures. (b) Liver section from vehicle-dosed rats. (c) Liver section from rats given 4 daily doses of BMS-869780 at 100 mg/kg.

Molecule `COc1cc(Nc2nc3n(n2)CCCC[C@H]3c2ccc(F)cc2)ccc1-n1cnc(Cl)c1` [BMS-869780] has an AUC(0-t) ([1]; IV 1 mg/kg) of 6.64 ± 2.26 µM·h, an MRT ([1]; IV 1 mg/kg) of 6.6 ± 2 h and a clearance ([1]; IV 1 mg/kg) of 5.7 ± 1.7 mL/min/kg. For the same molecule, the half-life ([1]; IV 1 mg/kg) was 5.2 ± 1.4 h, the Vd ([1]; IV 1 mg/kg, read-out: Vss) was 2.2 ± 0.8 L/kg and the AUC(0-t) ([1]; PO suspension 5 mg/kg) was 4.55 ± 2.16 µM·h. The Cmax ([1]; PO suspension 5 mg/kg) was 487 ± 155 nM, the Tmax ([1]; PO suspension 5 mg/kg) was 1.7 ± 0.6 h and the bioavailability ([1]; PO suspension 5 mg/kg) was 13%. For the same molecule, the AUC(0-t) ([2]; IV 1 mg/kg) was 1.48 ± 0.121 µM·h, the MRT ([2]; IV 1 mg/kg) was 1 ± 0.2 h and the clearance ([2]; IV 1 mg/kg) was 24.3 ± 1.7 mL/min/kg. The half-life ([2]; IV 1 mg/kg) was 2 ± 0.3 h, the Vd ([2]; IV 1 mg/kg, read-out: Vss) was 1.8 ± 0.5 L/kg and the AUC(0-t) ([2]; PO suspension 5 mg/kg) was 4 ± 0.964 µM·h. The Cmax ([2]; PO suspension 5 mg/kg) was 674 ± 227 nM, the Tmax ([2]; PO suspension 5 mg/kg) was 3.3 ± 1.2 h and the bioavailability ([2]; PO suspension 5 mg/kg) was 54%. For the same molecule, the “concentrations at which CYP3A4 mRNA transcription was activated” value [3] was ≥ 300 nM.

From PMC4109680, “Identification and Preclinical Pharmacology of the γ-Secretase Modulator BMS-869780” (International Journal of Alzheimer's Disease, 2014)
